The values that follow come from PMC12196251, “Synthesis of New DltA Inhibitors and Their Application as Adjuvant Antibiotics to Re-Sensitize Methicillin-Resistant Staphylococcus aureus” (Molecules, 2025).

Assay [1] concerns the target T1, recombinant DltA from E. faecalis (Enterococcus faecalis, UniProt Q830N0).
T1 construct: made in house; host or cells: E. coli
T1 sequence (Q830N0 1-506): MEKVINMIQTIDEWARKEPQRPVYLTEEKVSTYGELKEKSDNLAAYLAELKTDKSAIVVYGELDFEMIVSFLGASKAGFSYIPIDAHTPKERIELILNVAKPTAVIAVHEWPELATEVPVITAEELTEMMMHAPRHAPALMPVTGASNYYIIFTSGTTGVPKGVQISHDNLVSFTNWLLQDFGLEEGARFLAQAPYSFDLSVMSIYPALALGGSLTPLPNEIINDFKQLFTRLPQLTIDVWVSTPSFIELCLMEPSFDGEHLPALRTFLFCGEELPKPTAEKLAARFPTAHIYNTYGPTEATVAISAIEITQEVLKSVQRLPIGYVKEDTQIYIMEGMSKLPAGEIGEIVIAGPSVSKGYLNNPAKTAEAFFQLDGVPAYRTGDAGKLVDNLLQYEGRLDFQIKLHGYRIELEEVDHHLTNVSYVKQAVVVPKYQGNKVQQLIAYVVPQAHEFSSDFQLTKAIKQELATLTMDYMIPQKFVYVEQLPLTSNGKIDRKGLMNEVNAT
The assay can be described thus: DltA enzyme inhibition, PPi release coupled-enzyme assay. In kind it is biochemical. The method, then:
(§1) All new compounds were then evaluated in vitro for enzyme inhibition against recombinant DltA from E. faecalis or S. epidermis. Half-maximal inhibitory concentrations (IC50) were then determined by measuring the amount of PPi released at different inhibitor concentrations (Table 2). […] We noticed the DltA enzyme tolerated the presence of various modifications on the 2′-position, but the activity was inversely related to the size of the introduced group. […] Despite a good predicted binding affinity (−8.7 Kcal/mol), we hypothesize that the lower activity could be explained by the fact that the squaramide nitrogen atom might not be under its anionic form, as is the case with sulfamate 1.
(§2) The DltA-catalyzed ATP-hydrolysis reaction was monitored in vitro via PPi release (DltA +D-alanine +ATP → DltA-DAla-AMP +PPi) using a coupled-enzyme assay. The purified DltA was pretreated with DltC purified from E. coli to clear D-Ala-AMP already present in the enzyme preparation after expression in E. coli. Holo-DltC is the natural protein partner of DltA, and DltC purified from E. coli BL21 (DE3) contained 51% of this active form of DltC as determined by HPLC analysis. DltA was pretreated with DltC (ratio 1:1.2), incubated for 30 min at 37 °C and 30 min at 4 °C. Three successive washes were realized on Amicon Ultra-2 Centrifugal Filter Unit—Ultracel 30 membrane 30 kDa MWCO (Merck, Darmstadt, Germany) with elution buffer EB at 4 °C. The components of the coupled enzyme assay included 1.5 μM pre-treated DltA, 20 μM of ATP, and 14 μM of D-alanine. The half-maximal inhibitory concentration (IC50) of potential DltA inhibitors was determined by the addition of different concentrations of the synthesized molecules. PPi release was determined using the PiPer—Pyrophosphate assay kit (Invitrogen, Waltham, MA, USA) according to the recommendation of the supplier. Reactions were carried out in 96-well Chimney Style, non-binding Microplates with μClear Film Bottom (Greiner Bio-one, Frickenhausen, Germany). Plates were incubated at 37 °C for 5 h and read in a FlexStation 3 Multi-Mode plate reader (Molecular Devices, Silicon Valley, CA, USA), with λ excitation of 530 nm and λ emission of 590 nm. Experiments were conducted in sextuplicate, and the IC50 was determined by linear regression of the curve.

The target of assay [2] is T2, recombinant DltA from S. epidermidis (Staphylococcus epidermidis, UniProt Q5HQN0).
T2 construct: made in house; host or cells: E. coli
T2 sequence (Q5HQN0 1-485): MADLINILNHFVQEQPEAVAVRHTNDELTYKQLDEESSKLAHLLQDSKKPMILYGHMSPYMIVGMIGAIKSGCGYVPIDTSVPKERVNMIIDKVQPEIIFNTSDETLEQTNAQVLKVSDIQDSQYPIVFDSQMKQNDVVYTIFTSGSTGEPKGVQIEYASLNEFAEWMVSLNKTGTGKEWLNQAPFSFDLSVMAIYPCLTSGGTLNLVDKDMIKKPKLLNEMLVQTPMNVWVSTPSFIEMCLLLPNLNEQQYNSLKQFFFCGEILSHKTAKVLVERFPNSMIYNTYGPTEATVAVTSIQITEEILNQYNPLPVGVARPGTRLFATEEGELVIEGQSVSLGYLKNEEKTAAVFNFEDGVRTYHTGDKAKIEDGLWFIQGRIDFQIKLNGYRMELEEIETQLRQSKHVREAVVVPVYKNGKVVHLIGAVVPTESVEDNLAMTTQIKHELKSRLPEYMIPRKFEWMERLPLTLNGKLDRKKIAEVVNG
Described as above. Format: biochemical. On the procedure: as §1, §2

For assay [3], the system named is D-alanyl ester of the MRSA cell wall. The assay can be described thus: Quantification of D-alanyl ester in the bacterial cell wall. In kind it is cell-based, S. aureus. To be noted: inhibitor at 1 mM, value (spread). The method, then: (§3) All these compounds were also tested […] against MRSA clinical isolates. […] The minimum inhibitory concentrations (MICs) of imipenem (IPM) were next determined in the absence or presence of 1 mM of the different DltA inhibitors to evaluate their potential to re-sensitize MRSA to this β-lactam (Table 2). […] To clarify this hypothesis, quantification of D-alanyl ester of the MRSA cell wall was performed as previously described in the presence of inhibitors (Table 2). […] These new series represent a promising structure entry not reported yet for the inhibition of DltA and the re-sensitization of bacteria toward known antibiotics.
Ester-linked D-alanines were quantified as described previously, with the following modifications. Cultures were grown in 5 mL of BHI supplemented with DltA inhibitor to a final concentration of 0.05, 0.1, 0.25, 0.5, 0.75, or 1 mM for 16 h at 37 °C under shaking (120 rpm). Briefly, the quantification is based on the oxidation of a chromogen by H2O2 generated when free D-alanines are oxidized by a D-amino acid oxidase. Three independent experiments with duplicate samples were performed.

Assay [4] relates to MRSA clinical isolates. More on the design: method as in PMID 31339997, PMID 34450626, PMID 40116514. The settings on record: S. aureus (MRSA); in presence of inhibitor 1; previously reported; cited from earlier work.
In the next assay the target is DltA. More on the design: method as in PMID 15955059. The settings on record: DltA inhibitor; cited from earlier work.
Assay [5] relates to MRSA clinical isolates. The assay can be described thus: MIC of imipenem against MRSA in absence or presence of DltA inhibitor. In kind it is cell-based, S. aureus. To be noted: in presence of 1 mM of the DltA inhibitor; for MIC: Staphylococcus aureus, MRSA. On the procedure: as §3
Colonies from BHI agar plates were suspended in saline solution (0.9% NaCl) and adjusted to an OD600 of 0.5. For growth kinetics determination, 96-well microplates (Starlab, Orsay, France) containing 200 μL of fresh BHI medium were inoculated with bacterial suspensions to an OD600 of 0.02 with a wide range of DltA inhibitors (from 0 to 2 mM). Plates were incubated at 37 °C with shaking (orbital amplitude of 3 mm) in a microplate reader (InfiniteM Nano, Tecan, Seoul, Republic of Korean). OD600nm was measured every 10 min for 24 h. Determination of MIC/MBC of antibiotics and bacterial survival assays were performed as previously described using BHI medium. The DltA inhibitor was diluted in pure water and added to the growth medium to a final concentration of 0, 0.1, 0.25, 0.5, 0.75, or 1 mM.

Assay [6] concerns the target T1, recombinant DltA from E. faecalis. On the set-up: method as in doi:10.1002/ejoc.202300258. The settings on record: previous reported work; cited from earlier work.
[7] abbreviates: S. aureus (MRSA), read-out: MIC of IPM.
Where [8] appears, read: read-out: MIC of IPM, S. aureus (MRSA).

“And” between values parts separate entries of the source, which are not always exact repeats. Equal entries are not always repeated. Structures can show the parent of a compound that is named as a salt. Where two headings read alike, the source gives them in different places.

In general, IC50 refers to the point on the concentration scale where inhibition reaches its midpoint. As a reminder, the Ki is the equilibrium dissociation constant of an inhibitor or competing ligand from its target. With `C[C@@H](N)C(=O)NS(=O)(=O)OC[C@H]1O[C@@H](n2cnc3c(N)ncnc32)[C@H](O)[C@@H]1O` [Compound 1, reference compound], the IC50 was determined as 2.3 µM in assay [1] and 2.4 µM in assay [2]. Moreover, the “Reduction in D-Ala Ester Residues” value in assay [3] was 86.7% and 86.7 (10.5) %. The “MIC of IPM” value with MRSA clinical isolates [4] is 0.25 µg/mL. Besides, the Ki on DltA is 0.2 µM.
The term MIC denotes the smallest concentration in the dilution series that meets the test's criterion for growth inhibition. As for `C[C@@H](N)C(=O)NS(=O)(=O)OC[C@H]1O[C@@H](n2cnc3c(N)ncnc32)[C@H](F)[C@@H]1O` [Compound 8, ((2R,3R,4R,5R)-5-(6-amino-9H-purin-9-yl)-4-fluoro-3-hydroxytetrahydrofuran-2-yl)methyl (D-alanyl)sulfamate salt], the IC50 in assay [1] was 2.6 µM. For the same compound, the MIC with MRSA clinical isolates [5] (setting [7]) stood at 16 µg/mL. Besides, in assay [3], the “Reduction in D-Ala Ester Residues” value stood at 0%.
As to `C[C@@H](N)C(=O)NS(=O)(=O)OC[C@H]1O[C@@H](n2cnc3c(N)ncnc32)[C@@H](N=[N+]=[N-])[C@@H]1O` [Compound 9, ((2R,3S,4S,5R)-5-(6-amino-9H-purin-9-yl)-4-azido-3-hydroxytetrahydrofuran-2-yl)methyl (D-alanyl)sulfamate salt], the IC50 in assay [1] came to 3.8 µM. In the assay with MRSA clinical isolates [5] (setting [7]), the MIC amounted to 8 µg/mL. The “Reduction in D-Ala Ester Residues” value in assay [3] was 74.9% and 74.9 (9.4) %.
For the compound `C[C@@H](N)C(=O)Nc1c(NC[C@H]2O[C@@H](n3cnc4c(N)ncnc43)[C@H](O)[C@@H]2O)c(=O)c1=O` [Compound 23, 5′-N-(N-D-alanyl]-(3-amino-cyclobut-3-ene-1,2-dione))aminodeoxy adenosine salt], in assay [1], the IC50 was 28.4 µM. Besides, in assay [3], the “Reduction in D-Ala Ester Residues” value is on record as 11.5 (1.3) %.
For the compound `CC(N)C(=O)NS(=O)(=O)NCC1OC(n2cnc3c(N)ncnc32)C(O)C1O` [Compound 30, (R)-2-amino-N-(N-(((2R,3S,4R,5R)-5-(6-amino-9H-purin-9-yl)-3,4-dihydroxytetrahydrofuran-2-yl)methyl)sulfamoyl)propenamide salt], the IC50 in assay [1] turned out to be 1.8 µM; in assay [2] it was 2 µM. In the assay on MRSA clinical isolates [5] (setting [7]), the MIC was found to be 1 µg/mL. In assay [3], the “Reduction in D-Ala Ester Residues” value was 80.9% and 80.9 (18.4) %.
For `CC(N)C(=O)NS(=O)(=O)NCC1OC(n2cnc3c(N)ncnc32)C(F)C1O` [Compound 31, (R)-2-amino-N-(N-(((2R,3R,4R,5R)-5-(6-amino-9H-purin-9-yl)-4-fluoro-3-hydroxytetrahydrofuran-2-yl)methyl)sulfamoyl)propenamide salt], the IC50 in assay [1] was 3.2 µM. Moreover, in the assay on MRSA clinical isolates [5] (setting [7]), the minimum inhibitory concentration (MIC) worked out at 32 µg/mL. The “Reduction in D-Ala Ester Residues” value in assay [3] is on record as 0%.
In the case of `C[C@@H](N)C(=O)c1cn(C/C(CO)=C(\F)Cn2cnc3c(N)ncnc32)nn1` [Compound 39], the MIC with MRSA clinical isolates [5] (setting [8]) was 16 µg/mL. Besides, in assay [3], the “Reduction in D-Ala Ester Residues” value worked out at 0%. Besides, the concentration for half-maximal inhibition (IC50) in assay [6] was 7.4 µM.
Turning to `C[C@@H](N)C(=O)c1cn(C[C@H]2O[C@@H](n3cnc4c(N)ncnc43)[C@H](O)[C@@H]2O)nn1` [Compound 40], the MIC in the assay on MRSA clinical isolates [5] (setting [8]) turned out to be 8 µg/mL. The IC50 in assay [6] is 4.5 µM.
With `C[C@@H](N)C(=O)c1cn(C[C@H]2O[C@@H](n3cnc4c(N)ncnc43)[C@H](F)[C@@H]2O)nn1` [Compound 50, (R)-2-amino-1-(1-(((2R,3R,4R,5R)-5-(6-amino-9H-purin-9-yl)-4-fluoro-3-hydroxytetrahydrofuran-2-yl)methyl)-1H-1,2,3-triazol-4-yl)propan-1-one salt], in assay [1], the IC50 stood at 14.7 µM. In addition, the “MIC of IPM” value in the assay with MRSA clinical isolates [5] (S. aureus (MRSA)) is 32 µg/mL. Further, in the assay on MRSA clinical isolates [5] (setting [8]), the MIC lay within 16 to 64 µg/mL. Further, the “Reduction in D-Ala Ester Residues” value in assay [3] is listed as 8.6 (1.1) %.
Take `C[C@@H](NC(=O)OCc1ccc([N+](=O)[O-])cc1)C(=O)c1cn(C[C@H]2O[C@@H](n3cnc4c(N)ncnc43)[C@H](O)[C@@H]2O)nn1` [Compound 54, 4-nitrobenzyl ((R)-1-(1-(((2R,3S,4R,5R)-5-(6-amino-9H-purin-9-yl)-3,4-dihydroxytetrahydrofuran-2-yl)methyl)-1H-1,2,3-triazol-4-yl)-1-oxopropan-2-yl)carbamate salt]: the half-maximal inhibitory concentration (IC50) in assay [2] is 21.9 µM. Besides, in the assay on MRSA clinical isolates [5] (S. aureus (MRSA)), the “MIC of IPM” value worked out at 16 µg/mL. In addition, the MIC with MRSA clinical isolates [5] (setting [7]) lay in the range of 16 to 64 µg/mL. Besides, the “Reduction in D-Ala Ester Residues” value in assay [3] stood at 0%.
